From article PMC10339703 (Clinical and Translational Science, 2023)

Test system: healthy subjects
Test: Safety and tolerability
Type: in vivo, human
[1] = MAD 25 mg tablet b.i.d. 14 days
[2] = MAD 50 mg tablet b.i.d. 14 days

O[C@H]1CCCN[C@@H]1CCCn1cnc2c(Cl)c(Cl)ccc21 [Bersiporocin]
ADRs, number of events [1]: 25
Abdominal discomfort (ADR), number of events [1]: 1
Abdominal discomfort (ADR), subjects n (%) [1]: 1 (16.7)
Abdominal distension (ADR), number of events [1]: 3
Abdominal distension (ADR), subjects n (%) [1]: 2 (33.3)
Abdominal pain (ADR), number of events [1]: 5
Abdominal pain (ADR), subjects n (%) [1]: 2 (33.3)
Abdominal pain upper (ADR), subjects n (%) [1]: 0
Acne (ADR), subjects n (%) [1]: 0
Alanine aminotransferase increased (ADR), subjects n (%) [1]: 0
Altered visual depth perception (ADR), subjects n (%) [1]: 0
Balance disorder (ADR), subjects n (%) [1]: 0
Bowel movement irregularity (ADR), number of events [1]: 1
Bowel movement irregularity (ADR), subjects n (%) [1]: 1 (16.7)
Cold sweat (ADR), number of events [1]: 1
Cold sweat (ADR), subjects n (%) [1]: 1 (16.7)
Constipation (ADR), subjects n (%) [1]: 0
Decreased appetite (ADR), subjects n (%) [1]: 0
Diarrhea (ADR), number of events [1]: 3
Diarrhea (ADR), subjects n (%) [1]: 2 (33.3)
Dizziness (ADR), subjects n (%) [1]: 0
Dry mouth (ADR), subjects n (%) [1]: 0
Dysgeusia (ADR), subjects n (%) [1]: 0
Eructation (ADR), subjects n (%) [1]: 0
Esophageal pain (ADR), subjects n (%) [1]: 0
Euphoric mood (ADR), subjects n (%) [1]: 0
Feces discolored (ADR), subjects n (%) [1]: 0
Feces soft (ADR), subjects n (%) [1]: 0
Feeling hot (ADR), number of events [1]: 1
Feeling hot (ADR), subjects n (%) [1]: 1 (16.7)
Flatulence (ADR), subjects n (%) [1]: 0
Gastroesophageal reflux disease (ADR), number of events [1]: 2
Gastroesophageal reflux disease (ADR), subjects n (%) [1]: 1 (16.7)
Headache (ADR), subjects n (%) [1]: 0
Hypoesthesia (ADR), subjects n (%) [1]: 0
Impaired healing (ADR), subjects n (%) [1]: 0
Malaise (ADR), number of events [1]: 1
Malaise (ADR), subjects n (%) [1]: 1 (16.7)
Myalgia (ADR), subjects n (%) [1]: 0
Nausea (ADR), number of events [1]: 4
Nausea (ADR), subjects n (%) [1]: 1 (16.7)
Neutropenia (ADR), subjects n (%) [1]: 0
Oropharyngeal pain (ADR), subjects n (%) [1]: 0
Papule (ADR), subjects n (%) [1]: 0
Pollakiuria (ADR), subjects n (%) [1]: 0
Presyncope (ADR), subjects n (%) [1]: 0
Proctalgia (ADR), subjects n (%) [1]: 0
Salivary hypersecretion (ADR), number of events [1]: 3
Salivary hypersecretion (ADR), subjects n (%) [1]: 2 (33.3)
Skin irritation (ADR), subjects n (%) [1]: 0
Somnolence (ADR), subjects n (%) [1]: 0
Subjects with ADRs, n (%) [1]: 4 (66.7)
Transaminases increased (ADR), subjects n (%) [1]: 0
Tremor (ADR), subjects n (%) [1]: 0
Vomiting (ADR), subjects n (%) [1]: 0
ADRs, number of events [2]: 35
Abdominal discomfort (ADR), subjects n (%) [2]: 0
Abdominal distension (ADR), number of events [2]: 1
Abdominal distension (ADR), subjects n (%) [2]: 1 (16.7)
Abdominal pain (ADR), number of events [2]: 1
Abdominal pain (ADR), subjects n (%) [2]: 1 (16.7)
Abdominal pain upper (ADR), subjects n (%) [2]: 0
Acne (ADR), subjects n (%) [2]: 0
Alanine aminotransferase increased (ADR), number of events [2]: 1
Alanine aminotransferase increased (ADR), subjects n (%) [2]: 1 (16.7)
Altered visual depth perception (ADR), number of events [2]: 1
Altered visual depth perception (ADR), subjects n (%) [2]: 1 (16.7)
Balance disorder (ADR), subjects n (%) [2]: 0
Bowel movement irregularity (ADR), subjects n (%) [2]: 0
Cold sweat (ADR), subjects n (%) [2]: 0
Constipation (ADR), number of events [2]: 1
Constipation (ADR), subjects n (%) [2]: 1 (16.7)
Decreased appetite (ADR), subjects n (%) [2]: 0
Diarrhea (ADR), number of events [2]: 2
Diarrhea (ADR), subjects n (%) [2]: 2 (33.3)
Dizziness (ADR), number of events [2]: 1
Dizziness (ADR), subjects n (%) [2]: 1 (16.7)
Dry mouth (ADR), number of events [2]: 1
Dry mouth (ADR), subjects n (%) [2]: 1 (16.7)
Dysgeusia (ADR), number of events [2]: 2
Dysgeusia (ADR), subjects n (%) [2]: 2 (33.3)
Eructation (ADR), subjects n (%) [2]: 0
Esophageal pain (ADR), subjects n (%) [2]: 0
Euphoric mood (ADR), number of events [2]: 1
Euphoric mood (ADR), subjects n (%) [2]: 1 (16.7)
Feces discolored (ADR), number of events [2]: 1
Feces discolored (ADR), subjects n (%) [2]: 1 (16.7)
Feces soft (ADR), subjects n (%) [2]: 0
Feeling hot (ADR), subjects n (%) [2]: 0
Flatulence (ADR), subjects n (%) [2]: 0
Gastroesophageal reflux disease (ADR), number of events [2]: 1
Gastroesophageal reflux disease (ADR), subjects n (%) [2]: 1 (16.7)
Headache (ADR), number of events [2]: 5
Headache (ADR), subjects n (%) [2]: 3 (50.0)
Hypoesthesia (ADR), number of events [2]: 1
Hypoesthesia (ADR), subjects n (%) [2]: 1 (16.7)
Impaired healing (ADR), subjects n (%) [2]: 0
Malaise (ADR), subjects n (%) [2]: 0
Myalgia (ADR), number of events [2]: 2
Myalgia (ADR), subjects n (%) [2]: 2 (33.3)
Nausea (ADR), number of events [2]: 6
Nausea (ADR), subjects n (%) [2]: 4 (66.7)
Neutropenia (ADR), subjects n (%) [2]: 0
Oropharyngeal pain (ADR), number of events [2]: 1
Oropharyngeal pain (ADR), subjects n (%) [2]: 1 (16.7)
Papule (ADR), subjects n (%) [2]: 0
Pollakiuria (ADR), number of events [2]: 1
Pollakiuria (ADR), subjects n (%) [2]: 1 (16.7)
Presyncope (ADR), subjects n (%) [2]: 0
Proctalgia (ADR), subjects n (%) [2]: 0
Salivary hypersecretion (ADR), subjects n (%) [2]: 0
Skin irritation (ADR), subjects n (%) [2]: 0
Somnolence (ADR), subjects n (%) [2]: 0
Subjects with ADRs, n (%) [2]: 6 (100)
Transaminases increased (ADR), subjects n (%) [2]: 0
Tremor (ADR), subjects n (%) [2]: 0
Vomiting (ADR), number of events [2]: 5
Vomiting (ADR), subjects n (%) [2]: 3 (50.0)
